Here are results for four molecules from patent publication US20070276034A1, “Compounds, compositions and methods for the treatment of synucleinopathies” (priority 2002, published 2007).

What all share (assay type): biochemical
In experiment [1] the target is T1, IAPP fibrils (Homo sapiens, UniProt P10997).
T1 construct: purchased Bachem Inc
T1 sequence (P10997 34-70 limits assumed): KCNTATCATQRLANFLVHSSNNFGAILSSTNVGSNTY
Description: Congo red binding assay with IAPP fibrils. The note with it: 3-day incubation. On the procedure: (§1) In the Congo red binding assay the ability of a given test compound to alter amyloid (in this case, IAPP) binding to Congo red is quantified. In this assay, IAPP and test compounds were incubated for 3 days and then vacuum filtered through a 0.2 μm filter. The amount of IAPP retained in the filter was then quantitated following staining of the filter with Congo red. After appropriate washing of the filter, any lowering of the Congo red color on the filter in the presence of the test compound (compared to the Congo red staining of the amyloid protein in the absence of the test compound) was indicative of the test compound's ability to diminish/alter the amount of aggregated and congophilic IAPP.
In the study, the ability of IAPP fibrils to bind Congo red in the absence or presence of increasing amounts of the compounds or EDTA (at IAPP:test compound weight ratios of 1:1, 1:0.1, 1:0.01 or 1:0.001) was determined.

In experiment [2] the target is T2, Aβ 1-42 fibrils (Homo sapiens, UniProt P05067).
T2 construct: purchased Bachem Inc
T2 sequence (P05067 672-713): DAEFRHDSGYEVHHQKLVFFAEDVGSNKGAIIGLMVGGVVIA
Description: Circular dichroism spectroscopy of Aβ 1-42 fibrils. The note with it: for disruption of β-sheet structure in Aβ 1-42 fibrils (CD minima at 218 nm): 3 days co-incubation, 25 μM Aβ 1-42 (FIG. 1, FIG. 2); for dose-response of disruption of β-sheet structure of Aβ 1-42 fibrils (CD minima at 218 nm): Aβ:test compound wt/wt ratios of 1:0.1, 1:1 and 1:10 (FIG. 3). Here is the method: Circular dichroism (CD) spectroscopy is a method that can be used to determine the effects of test compounds to disrupt the secondary structure conformation of amyloid fibrils. In one study, as described in this example, circular dichroism spectroscopy was used to determine the effects of different compounds of the invention on β-sheet conformation of Aβ 1-42 fibrils. For this study, Aβ 1-42 (Bachem Inc., Torrance, Calif.) was first dissolved in a 2 mM NaOH solution, maintaining the pH of these solutions above 10. […] Aβ 1-42 was then incubated at 37° C. in the absence or presence of different compounds at an Aβ:test compound wt/wt ratios of 1:0.1, 1:1 and 1:10. After 3 days of incubation, CD spectra were recorded on a Jasco 810 spectropolarimeter (Easton, Md.). All CD spectra were collected with 0.05 cm quartz cells. Wavelength traces were scanned from 190-260 nm at 0.5 nm increments with a bandwidth of 5 nm, at a scan speed of 10 nm/minute, a response time of 32 seconds, and a data pitch of 0.5 nm. The whole system was equilibrated and continuously flushed with nitrogen at 10 ml/minute. […] Ellipticity in degrees was converted to MRE ([Q]; molar residue ellipticity) using the formula [Q]=100•[…]; where Q is the ellipticity in degrees; […]
(Circular dichroism is widely used to follow secondary structure.)

Experiment [3] addresses T2, Aβ 1-42 fibrils. Description: Thioflavin T fluorometry - disruption of pre-formed Aβ 1-42 Alzheimer's fibrils. The note with it: 25 μM pre-fibrillized Aβ 1-42, 37° C., 3 days, read-out: % Inhibition Aβ (result ± S.D.). An excerpt: In one study, Thioflavin T fluorometry was used to determine the effects of the compounds, and of EDTA (as a negative control). In this assay Thioflavin T binds specifically to fibrillar amyloid, and this binding produces a fluorescence enhancement at 485 nm that is directly proportional to the amount of amyloid fibrils formed. The higher the fluorescence, the greater the amount of amyloid fibrils formed (Naki et al., Lab. Invest. 65:104-110, 1991; Levine III, Protein Sci. 2:404-410, 1993; Amyloid: Int. J. Exp. Clin. Invest. 2:1-6, 1995).
(§2) In this study, 25 μM of pre-fibrillized Aβ 1-42 (Bachem Inc) was incubated at 37° C. for 3 days either alone, or in the presence of one of the compounds or EDTA (at Aβ:test compound weight ratios of 1:1, 1:0.1, 1:0.01 or 1:0.001). Following 3-days of co-incubation, 50 μl of each incubation mixture was transferred into a 96-well microtiter plate containing 150 μl of distilled water and 50 μl of a Thioflavin T solution (i.e. 500 mM Thioflavin T in 250 mM phosphate buffer, pH 6.8). The fluorescence was read at 485 nm (444 nm excitation wavelength) using an ELISA plate fluorometer after subtraction with buffer alone or compound alone, as blank.

For experiment [4], the target named is T1, IAPP fibrils. Put plainly: Thioflavin T fluorometry - disruption of type 2 diabetes IAPP fibrils. The note with it: 25 μM pre-fibrillized IAPP, 37° C., 3 days, read-out: % Inhibition IAPP (result ± S.D.). Here is the method: In this assay Thioflavin T binds specifically to fibrillar amyloid, and this binding produces a fluorescence enhancement at 485 nm that is directly proportional to the amount of IAPP fibrils present. The higher the fluorescence, the greater the amount of IAPP fibrils present (Naki et al, Lab. Invest. 65:104-110, 1991; Levine III, Protein Sci. 2:404-410, 1993; Amyloid: Int. J. Exp. Clin. Invest. 2:1-6, 1995).
as §2, with “IAPP” for “Aβ 1-42”, “IAPP:test” for “Aβ:test”

Experiment [5] has as its target T2, Aβ 1-42 fibrils. Description: Congo red binding assay with Aβ 1-42 fibrils. The note with it: 3-day incubation. Here is the method:
as §1, with “a” for “a given”, “Aβ)” for “IAPP)”, “Aβ 1-42” for “IAPP”, “Aβ.” for “IAPP.”
In one study, the ability of Aβ fibrils to bind Congo red in the absence or presence of increasing amounts of the compounds or EDTA (at Aβ:test compound weight ratios of 1:1, 1:0.1, 1:0.01 or 1:0.001) was determined.

The target in another experiment is T3, monomeric Aβ 1-42 (Homo sapiens, UniProt P05067).
T3 construct: purchased Bachem Inc
T3 sequence (P05067 672-713): as above
Description: SDS-PAGE/Western blot of Aβ 1-42 after incubation with compounds. The note with it: 25 μM pre-fibrillized Aβ 1-42, 37° C., 3 days, 0.2 μm filtrate, antibody 6E10. On the procedure:
In this latter study, triplicate samples of pre-fibrillized Aβ 1-42 (25 μM) was incubated at 37° C. for 3 days, alone or in the presence of the compounds or EDTA. Five micrograms of each sample was then filtered through a 0.2 μm filter. Protein recovered from the filtrate was then loaded, and ran on a 10-20% Tris-Tricine SDS-PAGE, blotted to nitrocellulose and detected using an Aβ-antibody (clone 6E10; Senetek).

[6] abbreviates: IAPP:test compound wt/wt ratio 1:0.001.
The mark [7] stands for this setting: IAPP:test compound wt/wt ratio 1:0.01.
Where [8] appears, read: IAPP:test compound wt/wt ratio 1:0.1.
[9] abbreviates: IAPP:test compound wt/wt ratio 1:1.
Where [10] appears, read: Aβ:test compound wt/wt ratio 1:0.001.
The mark [11] stands for this setting: Aβ:test compound wt/wt ratio 1:0.01.
Setting [12] is: Aβ:test compound wt/wt ratio 1:0.1.
Where [13] appears, read: Aβ:test compound wt/wt ratio 1:1.

Where two headings read alike, the source gives them in different places.

Consider `Oc1ccc(CN[C@@H]2CCCC[C@H]2NCc2ccc(O)c(O)c2)cc1O` (relative stereo) [Compound 12, N,N′-bis(3,4-dihydroxybenzyl)-trans-1,2-diaminocyclohexane], for which the “% Inhibition IAPP (result ± S.D.), Congo red binding” value (“% Inhibition IAPP” for short) amounted to 0.0 ± 2.40% on IAPP fibrils [1] (setting [6]), 6.9 ± 2.45% at IAPP fibrils [1] (setting [7]), 8.3 ± 0.85% on IAPP fibrils [1] (setting [8]) and 39.8 ± 0.26% on IAPP fibrils [1] (setting [9]). In addition, the “disruption of β-sheet structure in Aβ 1-42 fibrils (CD minima at 218 nm)” value on Aβ 1-42 fibrils [2] is “marked disruption of β-sheet structure”. Also, on Aβ 1-42 fibrils [2], the “dose-response of disruption of β-sheet structure of Aβ 1-42 fibrils (CD minima at 218 nm)” value is recorded as “dose-dependent decrease in the minima”. For the same molecule, the inhibition (as a rule, the drop in the measured response relative to a control, in per cent) came to 0% on Aβ 1-42 fibrils [3] (setting [10]); 10.8 ± 21.9% on Aβ 1-42 fibrils [3] (setting [11]); 82 ± 1.13% on Aβ 1-42 fibrils [3] (setting [12]); 99.7 ± 0.17% at Aβ 1-42 fibrils [3] (setting [13]); 13 ± 10.3% on IAPP fibrils [4] (setting [6]); 37.5 ± 0.76% at IAPP fibrils [4] (setting [7]). Besides, the inhibition at IAPP fibrils [4] (setting [8]) was found to be 86 ± 0.76%; at IAPP fibrils [4] (setting [9]) it was 99.9 ± 0.19%.

Take `Oc1ccc(CCc2ccc(O)c(O)c2)cc1O` [Compound 4, 1,2-bis(3,4-dihydroxyphenyl)ethane]: the figures for the “% Inhibition IAPP” value at IAPP fibrils [1] (setting [6]), at IAPP fibrils [1] (setting [8]) and at IAPP fibrils [1] (setting [9]) were 0.0 ± 1.05%, 25.4 ± 4.68% and 68.9±1.22%, respectively. For the same molecule, at Aβ 1-42 fibrils [2], the “disruption of β-sheet structure in Aβ 1-42 fibrils (CD minima at 218 nm)” value is reported as “marked disruption of β-sheet structure”. For the same molecule, the inhibition worked out at 26.8 ± 4.8% on Aβ 1-42 fibrils [3] (setting [10]); 97.4 ± 0.4% on Aβ 1-42 fibrils [3] (setting [12]); 98.5 ± 0.77% on Aβ 1-42 fibrils [3] (setting [13]); 17.3 ± 4.07% on IAPP fibrils [4] (setting [6]); 63.2 ± 2.09% on IAPP fibrils [4] (setting [7]); 96 ± 1% on IAPP fibrils [4] (setting [8]). The inhibition at IAPP fibrils [4] (setting [9]) stood at 99.7 ± 0.23%. Also, the “% Inhibition Aβ (result ± S.D.), Congo red binding” value on Aβ 1-42 fibrils [5] (setting [11]) is recorded as 16.4 ± 2.02%; at Aβ 1-42 fibrils [5] (setting [12]), 46.8 ± 1.28%; on Aβ 1-42 fibrils [5] (setting [13]) it was 73.0 ± 0.90%. For the same molecule, on monomeric Aβ 1-42, the “detection of Aβ 1-42 monomers (~4 kilodalton band) on Western blot” value is recorded as “not detected”.

On to `O=C(C=Cc1ccc(O)c(O)c1)NCc1ccc(O)c(O)c1` [Compound 61, 3,4-dihydroxycinnamic acid 3,4-dihydroxybenzylamide], for which the “% Inhibition IAPP” value at IAPP fibrils [1] (setting [6]) is listed as 0.0 ± 3.87%; on IAPP fibrils [1] (setting [7]) it was 4.0 ± 1.78%; on IAPP fibrils [1] (setting [8]), 0.0 ± 7.07%; on IAPP fibrils [1] (setting [9]) it was 23.7 ± 0.39%. Besides, the “disruption of β-sheet structure in Aβ 1-42 fibrils (CD minima at 218 nm)” value on Aβ 1-42 fibrils [2] is on record as “marked disruption of β-sheet structure”. Moreover, the “dose-response of disruption of β-sheet structure of Aβ 1-42 fibrils (CD minima at 218 nm)” value at Aβ 1-42 fibrils [2] is “dose-dependent decrease in the minima”. For the same molecule, the inhibition on Aβ 1-42 fibrils [3] (setting [10]) was determined as 26 ± 7.51%; on Aβ 1-42 fibrils [3] (setting [11]), 16.9 ± 1.39%; at Aβ 1-42 fibrils [3] (setting [12]), 80.1 ± 4.76%; on Aβ 1-42 fibrils [3] (setting [13]) it was 100 ± 0.41%; at IAPP fibrils [4] (setting [6]), 0.5 ± 6.33%; at IAPP fibrils [4] (setting [7]) it was 35.4 ± 5.68%. Besides, the inhibition at IAPP fibrils [4] (setting [8]) was 83.6 ± 1.27%; on IAPP fibrils [4] (setting [9]) it was 96.8 ± 0.47%.

Turning to `O=C(NCCc1ccc(O)c(O)c1)Nc1ccc(O)c(O)c1` [Compound 78, 1-(3,4-dihydroxyphenyl)-3-(3,4-dihydroxyphenethyl)urea], the “% Inhibition IAPP” value at IAPP fibrils [1] (setting [6]) was 6.6 ± 3.04%; on IAPP fibrils [1] (setting [7]), 19.9 ± 2.12%; at IAPP fibrils [1] (setting [8]) it was 16.7 ± 6.80%; at IAPP fibrils [1] (setting [9]), 56.3 ± 5.32%. On Aβ 1-42 fibrils [2], the “disruption of β-sheet structure in Aβ 1-42 fibrils (CD minima at 218 nm)” value is “marked decrease in the minima”. Moreover, the inhibition on Aβ 1-42 fibrils [3] (setting [10]) worked out at 22.4 ± 5.63%; on Aβ 1-42 fibrils [3] (setting [11]), 57.8 ± 4.63%; on Aβ 1-42 fibrils [3] (setting [12]), 89.7 ± 1.8%; at Aβ 1-42 fibrils [3] (setting [13]), 100 ± 0.78%; at IAPP fibrils [4] (setting [6]), 15.3 ± 4.73%; at IAPP fibrils [4] (setting [7]), 58.3 ± 1.2%. For the same molecule, the inhibition on IAPP fibrils [4] (setting [8]) came to 92.4 ± 0.27%; at IAPP fibrils [4] (setting [9]) it was 99.5 ± 0.26%. The “detection of Aβ 1-42 monomers (~4 kilodalton band) on Western blot” value on monomeric Aβ 1-42 was “not detected”.
